Data taken from paper PMC10481938, “Discovery of new Schistosoma mansoni aspartyl protease inhibitors by structure-based virtual screening” (Memórias do Instituto Oswaldo Cruz, 2023).

Tests used:
[1] = biological target: recombinant Schistosoma mansoni cathepsin D-like aspartyl protease 1 (SmCD1) (Schistosoma mansoni, UniProt P91802); assay: SmCD1 enzymatic assay (FRET substrate Abz-AIAF/FSRQ-EDDnp); type: biochemical; conditions: for inhibition at 10 µM: read-out: Enzymatic activity inhibition (%) SmCD1; for IC50: recombinant SmCD1, pH 3.5, 95% confidence interval in parentheses; for Binding efficiency index (BEI): BEI = pIC50/MW(kDa), from SmCD1 IC50
Description: SmCD1 cloning, expression and purification - Expression of the recombinant enzyme was previously performed by our group[14] by transfection of the vector with recombinant proSmCD1 gene (proSmCD1r) into culture bottles containing human embryonic kidney (HEK293) cells. After an incubation period of three to five days, the culture medium of the HEK293 cells was collected, filtered, and used for the purification of the recombinant protein. A HisTrap FF column in-tandem with a HiLoad 16/60 Superdex column, connected to an Äkta Xpress system were used for the purification of the protein.
(§1) SmCD1 enzymatic assay - Initially, 2.5 μg of SmCD1 was added to a reaction medium containing 50 mM sodium acetate buffer with 50 mM NaCl at pH 3.5. […] After incubation, to start the reaction, 10 μM of the substrate octapeptide fluorescent (FRET) Abz-AIAF/FSRQ-EDDnp (102023-1, GenOne) was added to the medium. The substrate hydrolysis reaction product was continuously detected (λex = 310 nm and λem = 420 nm), using a Flex Station III microplate reader (Molecular Devices), during the initial 10 min of the reaction.
(§2) All enzymatic assays in this work were performed as described above, and repeated at least three times, each condition in triplicate. In tests involving screening of compounds, the percentage of inhibition of enzymatic activity was calculated considering the mean of the negative control as 100% activity.
(§3) Determination of IC 50 values - For IC50 (inhibitor concentration in which the enzymatic activity is reduced by 50%) determination assays, serial dilutions of the inhibitors were performed, ranging from 1 µM to 500 µM. The IC50 values were determined by fitting SmCD1 activity data into the 4-parameter logistic equation.

[2] = test system: adult worm aqueous extract (AWAE) aspartic protease activity; assay: AWAE aspartic protease activity assay; type: biochemical, Schistosoma mansoni; conditions: for Enzymatic activity inhibition (%) AWAE: 10 μM of compound, average of triplicate of single experiment, CV% in parentheses; for IC50: aspartic protease activity of adult worm aqueous extract, with 5 µM E-64, 95% confidence interval in parentheses
Description: Preparation of adult worm aqueous extract (AWAE) - The extract was prepared from the homogenisation of 1 mL of worms, containing both male and female, in 5 mL of phosphate buffered saline (PBS) + 1% CHAPS, at pH 7.4, using a Turrax disperser. This volume of parasites is roughly equivalent to 20 adult parasites. The homogenate was centrifuged at 20,000 g for 1 hour at 4 °C, and the supernatant stored at -80 °C. An aliquot was used for the protein dosing by the Lowry method (DC^TM protein assay - BIO-RAD).
[…] In tests involving screening of compounds, the percentage of inhibition of enzymatic activity was calculated considering the mean of the negative control as 100% activity.
(§4) AWAE aspartic protease activity assay - For assaying the aspartyl protease activity present in the AWAE, the same protocol described above for SmCD1 was followed, except for 20 µg of total proteins present in AWAE were added instead of the recombinant SmCD1 enzyme. Additionally, 5 µM of E-64, an inhibitor of cysteinyl proteases, was added to prevent enzymes of this class present in the AWAE[15] to also contribute to substrate hydrolysis on the acidic pH of the assay.
as §3

porcine pepsin = biological target: T1, porcine pepsin (Sus scrofa, UniProt P00791); assay: Specificity assay toward porcine pepsin; type: biochemical; conditions: for inhibition at 10 µM: 10 μM of compound, average of triplicate of single experiment, CV% in parentheses, read-out: Enzymatic activity inhibition (%) Pepsin; for IC50: porcine pepsin, 95% confidence interval in parentheses
T1 construct: purchased Difco 0151-17 / 215110
Description: as §1
(§5) Specificity assays toward mammalian proteases - For recombinant BtCD and porcine pepsin, the same protocol described above for SmCD1 was followed, except for 10 μg of BtCD or 5 μg of pepsin were added.
The IC50 values were determined by fitting SmCD1 activity data into the 4-parameter logistic equation.

[3] = test system: aspartic protease activity (porcine pepsin, SmCD1, AWAE); assay: Aspartic protease inhibition screening of 50 putative hits (hit criterion); type: biochemical; conditions: 10 µM, SmCD1 or AWAE
Description: as §1, §2, §4, §5
The AWAE assay captures the combined activities of all SmAPs present in schistosome adult worms, while excluding the concurrent cysteinyl protease activity, due the addition of the broad-spectrum E-64 inhibitor.

WSS-1 cells = assay: Cytotoxicity assay on human WSS-1 cells (resazurin); type: cell-based; conditions: 48 h
Description: Cytotoxicity assays on human WSS-1 cells - The cytotoxicity of compounds 5, 19 and 50 was evaluated against normal epithelial cells derived from human kidney (WSS-1, ATCC™ CRL-2029). Cells were seeded in 96-well plates, at 5x10^4 cells/mL, in DMEM high glucose medium supplemented with 10% foetal bovine serum (FBS). After adherence period of 24 h, at 37 °C and 5% CO2, the cells were treated with compounds at 10 µM or 100 μM concentrations and incubated for 44 h. After this time, resazurin solution was added to cells culture, at a final concentration of 0.01 mg/mL. The cells returned to the incubator for another 4 h to complete 48 h total incubation time.[50]
Fluorescence readings of resorufin (λex = 560 nm, λem = 590 nm) were taken immediately (F0) and 4 hours (F4) after resazurin addition, using Flex Station III. The percentage of viable cells at the end of the experiment, that is, after compounds exposure for 48h, was calculated as follows: […]
<mml:math><mml:mi>V</mml:mi><mml:mi>i</mml:mi><mml:mi>a</mml:mi><mml:mi>b</mml:mi><mml:mi>l</mml:mi><mml:mi>e</mml:mi><mml:mi> </mml:mi><mml:mi>c</mml:mi><mml:mi>e</mml:mi><mml:mi>l</mml:mi><mml:mi>l</mml:mi><mml:mi>s</mml:mi><mml:mo>=</mml:mo><mml:mfrac><mml:mrow><mml:mi>F</mml:mi><mml:mn>4</mml:mn><mml:mo>-</mml:mo><mml:mi>F</mml:mi><mml:mn>0</mml:mn><mml:mi mathvariant="normal"> </mml:mi><mml:mi mathvariant="normal">t</mml:mi><mml:mi mathvariant="normal">r</mml:mi><mml:mi mathvariant="normal">e</mml:mi><mml:mi mathvariant="normal">a</mml:mi><mml:mi mathvariant="normal">t</mml:mi><mml:mi mathvariant="normal">e</mml:mi><mml:mi mathvariant="normal">d</mml:mi></mml:mrow><mml:mrow><mml:mi>F</mml:mi><mml:mn>4</mml:mn><mml:mo>-</mml:mo><mml:mi>F</mml:mi><mml:mn>0</mml:mn><mml:mi mathvariant="normal"> </mml:mi><mml:mi mathvariant="normal">c</mml:mi><mml:mi mathvariant="normal">o</mml:mi><mml:mi mathvariant="normal">n</mml:mi><mml:mi mathvariant="normal">t</mml:mi><mml:mi mathvariant="normal">r</mml:mi><mml:mi mathvariant="normal">o</mml:mi><mml:mi mathvariant="normal">l</mml:mi></mml:mrow></mml:mfrac><mml:mi mathvariant="normal"> </mml:mi><mml:mi mathvariant="normal">x</mml:mi><mml:mi mathvariant="normal"> </mml:mi><mml:mn>100</mml:mn><mml:mi mathvariant="normal"> </mml:mi></mml:math>

adult S. mansoni worms = assay: Schistosoma mansoni adult worms ex vivo motility assay; type: cell-based; conditions: 10 µM; for effect on female worms motility: late incubation times (48 or 72 h), female adult worms; for killing of adult worms ex vivo (judged by worm motility): up to 72 h, male and female adult worms
Description: Schistosoma mansoni adult worms ex vivo assay - The effect of 10 µM of the test compounds or PZQ (positive control) on adult S. mansoni worms motility for up to 72 h of incubation at 37 °C and 5% CO2 was evaluated by a high content assay previously developed by our group.[50] Image analysis was carried out in a customised pipeline of the open-source Cellprofiler software v. 4.2.1[51] and consisted of quantifying parasites area (Area measurement of MeasureObjectSizeShape module) and its displacement over pairs of consecutive images (false negative rate measurement of MeasureObjectOverlap module). […] The effects of the experimental treatments on parasites motility were estimated from this model by the integrated nested laplace approximation (INLA) method available in INLA package of R (https://www.r-inla.org). The results were expressed as percentual relative motility considering the estimated effect of the negative control group (0.2% DMSO) for each incubation time as 100%.

[4] = biological target: T2, bovine cathepsin D (BtCD) (Bos taurus, UniProt P80209); assay: Specificity assay toward bovine cathepsin D (BtCD); type: biochemical
T2 construct: purchased Sigma-Aldrich C3138
Description: as §1, §5

[5] = up to tested concentration 500 μM

recombinant Schistosoma mansoni cathepsin D-like aspartyl protease 1 (SmCD1), sequence (P91802 entry or part of it): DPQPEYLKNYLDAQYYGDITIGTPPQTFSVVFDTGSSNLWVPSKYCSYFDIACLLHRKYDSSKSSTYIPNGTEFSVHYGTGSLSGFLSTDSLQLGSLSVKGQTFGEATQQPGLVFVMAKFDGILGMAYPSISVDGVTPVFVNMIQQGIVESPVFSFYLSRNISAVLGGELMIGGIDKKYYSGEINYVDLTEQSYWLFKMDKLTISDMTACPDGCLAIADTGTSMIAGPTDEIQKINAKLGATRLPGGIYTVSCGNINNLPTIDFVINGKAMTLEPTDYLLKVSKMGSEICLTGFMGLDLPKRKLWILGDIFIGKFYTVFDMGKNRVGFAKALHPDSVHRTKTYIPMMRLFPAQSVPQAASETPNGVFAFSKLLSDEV
T1 sequence (P00791 60-385): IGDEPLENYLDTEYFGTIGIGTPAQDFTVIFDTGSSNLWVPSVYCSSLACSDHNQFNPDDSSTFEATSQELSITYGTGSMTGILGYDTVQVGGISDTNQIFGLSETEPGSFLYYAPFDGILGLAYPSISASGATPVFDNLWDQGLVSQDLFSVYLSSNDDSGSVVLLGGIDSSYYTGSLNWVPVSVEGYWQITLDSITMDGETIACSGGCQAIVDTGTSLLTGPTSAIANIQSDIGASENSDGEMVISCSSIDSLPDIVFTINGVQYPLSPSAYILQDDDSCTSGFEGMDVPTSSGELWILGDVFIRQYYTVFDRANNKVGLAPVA
T2 sequence (P80209 45-390): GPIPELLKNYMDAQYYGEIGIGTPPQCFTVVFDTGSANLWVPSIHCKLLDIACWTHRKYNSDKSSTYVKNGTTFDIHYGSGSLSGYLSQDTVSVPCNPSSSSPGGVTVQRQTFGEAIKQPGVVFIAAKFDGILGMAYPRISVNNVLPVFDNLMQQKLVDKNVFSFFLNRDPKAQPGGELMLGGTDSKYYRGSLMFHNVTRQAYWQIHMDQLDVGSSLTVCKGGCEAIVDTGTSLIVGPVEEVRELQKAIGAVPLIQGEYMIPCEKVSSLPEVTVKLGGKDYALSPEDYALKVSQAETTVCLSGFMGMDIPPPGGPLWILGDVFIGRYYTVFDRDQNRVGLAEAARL

Molecule	inhibition at 10 µM [1]	IC50 [1]	Enzymatic activity inhibition (%) AWAE [2]	IC50 [2]	inhibition at 10 µM (porcine pepsin)	IC50 (porcine pepsin)	inhibition of any of the aspartic protease activity (considered active) [3]	inhibition against SmCD1 [1, 5]	inhibition against pepsin (porcine pepsin; [5])	cytotoxicity against WSS-1 cells (WSS-1 cells; 10 µM)	decrease of WSS-1 cell viability (WSS-1 cells; 100 µM)	effect on female worms motility (adult S. mansoni worms)	killing of adult worms ex vivo (judged by worm motility) (adult S. mansoni worms)	Binding efficiency index (BEI) [1]	inhibition at 500 µM ([4]; highest concentration evaluated, 500 μM (solubility limitation))	IC50 ([4]; inferred from less than 50% inhibition at 500 μM)	cytotoxicity against WSS-1 cells (WSS-1 cells; up to 100 µM)
CCn1c2ccccc2c2cc(NC(=O)CSC3=C(C#N)C(c4ccccc4F)CC(=O)N3)ccc21 (centres unmarked) [Compound 22]	1.8%	> 500 µM	16.0 (15) %	> 500 µM	25.4%	38 µM	≥ 25%	–	–	–	–	–	–	–	–	–	–
O=C(CSc1nc2cc([N+](=O)[O-])ccc2[nH]1)Nc1ccc(F)c(F)c1 [Compound 1]	0.4%	> 500 µM	–	> 500 µM	5.6%	> 500 µM	≥ 25%	–	–	–	–	–	–	–	–	–	–
Fc1ccc(-c2ccc(CNCCOc3ccccn3)o2)cc1Cl [Compound 50]	3.4%	> 500 µM	34.5 (8) %	77.7 µM	10.5%	> 500 µM	≥ 25%	not showing significant inhibition	not showing significant inhibition	neither cytotoxic and safe	more than 90%	slight decrease	nor could kill adult worms	–	–	–	–
Cc1cccc(NS(=O)(=O)c2ccc3[nH]c(=O)c(=O)[nH]c3c2)c1 [Compound 5, 2,3-dioxo-N-(m-tolyl)-1,2,3,4-tetrahydroquinoxaline-6-sulfonamide]	24.3%	83.6 µM	23.0 (14) %	135 µM	44.2%	92.6 µM	≥ 25%	–	–	neither cytotoxic	–	slight decrease	nor could kill adult worms	12.3	≤ 45%	> 500 µM	non-toxic
N=C(Nc1ccccc1)Nc1nc(=O)cc(CSc2nc3ccccc3s2)[nH]1 [Compound 32]	12.2%	> 500 µM	–	> 500 µM	34.7%	72.5 µM	≥ 25%	–	–	–	–	–	–	–	–	–	–
Cc1ccc(C(C)(C)C)c(OCCCNCCN)c1 [Compound 12]	-10.5%	> 500 µM	32.0 (11) %	315 µM	-3.5%	231 µM	≥ 25%	–	–	–	–	–	–	–	–	–	–
Cc1cccc(NC(=O)CSc2ncnc3sc4c(c23)CCC(C)C4)c1 (centres unmarked) [Compound 19, 2-((7-methyl-5,6,7,8-tetrahydrobenzo[4,5]thieno[2,3-d]pyrimidin-4-yl)thio)-N-(m-tolyl)acetamide]	-15.3%	102 µM	9.20 (12) %	> 500 µM	42.4%	23.1 µM	≥ 25%	–	–	neither cytotoxic	–	–	nor could kill adult worms	10.4	–	–	non-toxic
pepstatin A [reference compound]	–	–	98.7 (7) %	–	–	–	–	–	–	–	–	–	–	–	–	–	–
